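Cells were grown in 96-well plates and exposed to each compound for 48 hours at five concentrations; endpoints were interpolated linearly between bracketing concentrations, or set to the highest concentration if not reached. At the TGI there is no net growth.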
Key:
Assay in all cases: NCI tumour cell line growth inhibition, 48 h
786-0 renal = tested on: 786-0 renal
EKVX NSCLC = tested on: EKVX NSCLC
HCC-2998 colon = tested on: HCC-2998 colon
IGROV1 ovarian = tested on: IGROV1 ovarian
M14 melanoma = tested on: M14 melanoma
MALME-3M melanoma = tested on: MALME-3M melanoma
OVCAR-3 ovarian = tested on: OVCAR-3 ovarian
RXF 393 renal = tested on: RXF 393 renal
SF-268 CNS = tested on: SF-268 CNS
SW-620 colon = tested on: SW-620 colon
TK-10 renal = tested on: TK-10 renal
UO-31 renal = tested on: UO-31 renal
CAKI-1 renal = tested on: CAKI-1 renal
KM12 colon = tested on: KM12 colon
NCI-H522 lung = tested on: NCI-H522 lung
OVCAR-5 ovarian = tested on: OVCAR-5 ovarian
SK-OV-3 ovarian = tested on: SK-OV-3 ovarian
SNB-19 CNS = tested on: SNB-19 CNS
UACC-257 melanoma = tested on: UACC-257 melanoma

SMILES	TGI (786-0 renal) [µM]	TGI (EKVX NSCLC) [µM]	TGI (HCC-2998 colon) [µM]	TGI (IGROV1 ovarian) [µM]	TGI (M14 melanoma) [µM]	TGI (MALME-3M melanoma) [µM]	TGI (OVCAR-3 ovarian) [µM]	TGI (RXF 393 renal) [µM]	TGI (SF-268 CNS) [µM]	TGI (SW-620 colon) [µM]	TGI (TK-10 renal) [µM]	TGI (UO-31 renal) [µM]	TGI (CAKI-1 renal) [µM]	TGI (KM12 colon) [µM]	TGI (NCI-H522 lung) [µM]	TGI (OVCAR-5 ovarian) [µM]	TGI (SK-OV-3 ovarian) [µM]	TGI (SNB-19 CNS) [µM]	TGI (UACC-257 melanoma) [µM]
COc1c(C)cc2c(c1O)C1NC(C2)[C@H](O)N2C3COC(=O)[C@@]4(CS[C@@H](c5c(OC(C)=O)c(C)c6c(c53)OCO6)C12)NCCC1=C4NC2C=CC=CC12 (some centres not stated)	< 0.01	0.0306	< 0.01	< 0.01	< 0.01	< 0.01	< 0.01	< 0.01	0.0304	< 0.01	1.31	0.0342							
Brc1cc2c(cc1C1SCCS1)OCO2	> 100	> 100	> 100	> 100	> 100	> 100	> 100		> 100	> 100	> 100	> 100	> 100	> 100	> 100	> 100	> 100	> 100	> 100
CN(CC(=O)O)c1ncc2c(n1)-c1ccccc1OC2	> 100	> 100		> 100	> 100	> 100		> 100	> 100	> 100	> 100	> 100	> 100	> 100	> 100	> 100		> 100	> 100
CC(C)N1CN(C(C(=O)N[C@@H]2C(=O)N3C2SC(C)(C)C3C(=O)O)c2ccc(O)cc2)CSC1=S (some centres not stated)	> 100	> 100		> 100	> 100	> 100	> 100		> 100	36.9	> 100	> 100	> 100	> 100	> 100	> 100	> 100	> 100	> 100
O=c1c2cc([N+](=O)[O-])ccc2n2n1CCCC2	> 100	> 100	> 100	> 100	> 100	> 100	> 100	> 100	> 100	> 100	> 100	> 100	> 100	> 100	> 100	> 100	> 100	> 100	> 100
CCOC(=O)C1=CC(C)(C(=O)OCC)Nc2c(nc(OC)[nH]c2=O)N1 (configuration not stated)	> 10	> 10	> 10	> 10	> 10	> 10	> 10	> 10	> 10	> 10	> 10	> 10	> 10	> 10	> 10	> 10	> 10	> 10	> 10
COc1cc(/C=C\c2cccnc2)cc(OC)c1OC	> 100	> 100		> 100	97.2	> 100	> 100	88.5	> 100	> 100	> 100	> 100	> 100	> 100	96.3	> 100		> 100	> 100
CCOP(=O)(OCC)C(C(=O)OC)C(=O)C(=O)Nc1c(C)cc(Br)cc1C (configuration not stated)	> 100	> 100	> 100	> 100	> 100	> 100	> 100	> 100	> 100	> 100	> 100	> 100	> 100	> 100	> 100	> 100	> 100	> 100	> 100
COc1ccc(C=C(c2ccc(OCc3ccccc3)cc2)c2ccc(OCc3ccccc3)cc2)cc1	> 100	> 100	> 100	> 100	> 100	> 100	> 100	> 100	> 100	> 100	> 100	> 100	> 100	> 100	> 100	> 100	> 100	> 100	> 100
O=C1C2CN(Cc3ccccc3)CC1CN(CC1CC1)C2	> 100	> 100		> 100	> 100	> 100	> 100	> 100	> 100	> 100	> 100	> 100	> 100	> 100	> 100	> 100	> 100	> 100	> 100
CCCCCCCC(=O)OCC1OC(OC)C(NC(=O)N(CCCl)N=O)C(O)C1O (configuration not stated)	22.7	> 83.9	30.3	67.1	21.6	28.5	47.7	34.3		18.9	58	45.9	32.6	27.7	16	97.5	97.1	> 100	41.3
O=C1C(=Cc2cccc(O)c2)N=C(c2ccccc2)N1n1c(-c2ccccc2)nc2ccccc2c1=O	> 100	> 100		61.1	> 100	92.3	70.1	83.8	87.5	> 100	> 100	61.1	85.8	56.4	56	78.3	> 100	72.7	81.9
COC(=O)C1C2CC3C1C3C2C(=O)OC (configuration not stated)	> 100	> 100	> 100	> 100	> 100	> 100	> 100	> 100	> 100	> 100	> 100	> 100	> 100	> 100	> 100	> 100	> 100	> 100	> 100
COc1ccc2[nH]cc(CCNC(=O)[C@](O)(Cc3cn(C)c4ccccc34)[C@@]3(O)OCC(O)C3O)c2c1 (some centres not stated)	> 100	> 100	> 100	> 100	> 100	> 100	> 100	> 100	> 100	> 100	> 100		> 100	> 100	> 100	> 100	> 100	> 100	> 100
NC(N)=NS(=O)(=O)c1ccc(Nc2c3ccccc3nc3c(C(=O)Nc4ccc(S(N)(=O)=O)cc4)ccc(Cl)c23)cc1	> 100	> 100	> 100	> 100	> 100	> 100	> 100	> 100	> 100	> 100	> 100	> 100	> 100	> 100	> 100	> 100	> 100	> 100	> 100
C/C(=N\NC(=S)N(C)CCN(C)C(=S)N/N=C(\C)c1ccccn1)c1ccccn1	> 100	10.4	38	3.96	> 100	11.1	9.53	3.46	12	22.9	7.75	15.4	11.8	14.3	18.8	42	20.1	16.6	11
COc1ccccc1/C=C1\CCC(CCN2CCOCC2)C1=O (configuration not stated)	> 100	> 100	> 100	> 100	> 100	> 100	> 100	> 100	> 100	> 100	> 100	> 100	> 100	> 100		> 100		> 100	> 100
COc1cc(/C=C2\C(=O)N(C(=O)c3ccc(NC(C)=O)cc3)N=C2C)ccc1O	> 100	> 100	> 100		> 100	> 100	> 100		> 100	> 100	> 100	> 100	> 100	> 100	> 100	> 100		> 100	> 100
CC(=O)c1cccc(NC(=O)C(=O)Nn2c(N)nnc2N)c1	> 100	> 100	> 100	> 100	> 100	> 100		> 100	> 100	> 100	> 100	> 100	> 100	> 100	> 100	> 100	> 100	> 100	> 100
CN(C)/C=N/NC(=O)/C(C#N)=C/N(C)C	> 100	> 100	> 100	> 100	> 100	> 100	> 100	> 100	> 100	> 100	> 100	> 100	> 100	> 100	> 100	> 100	> 100	> 100	> 100
O=c1[nH]cnc2c1CCCN2	> 100	> 100	> 100	> 100	> 100	> 100	> 100	> 100	> 100	> 100	> 100	> 100	> 100	> 100	> 100	> 100	> 100	> 100	> 100
[O-][n+]1onc2c1/C(=N/O)CCC2	> 100	> 100	> 100	> 100	> 100	> 100	> 100	> 100	> 100	> 100	> 100	> 100	> 100	> 100	> 100	> 100	> 100	> 100	> 100
CC(C)SC(NC(=O)C1C(C)(C)CCC1(C)C)C(=O)O (configuration not stated)	> 100	> 100	> 100	> 100	> 100				> 100	> 100	> 100	> 100				> 100	> 100	> 100	
CN1Cc2cc3c(cc2-c2ccccc21)OCO3	> 100	> 100	> 100	> 100	> 100		> 100	> 100	> 100	> 100	> 100	> 100		> 100	> 100	> 100		> 100	> 100
CC(C)(C)OC(=O)C1CC[C@@H](CC(=O)Oc2ccc([N+](=O)[O-])cc2)N1 (some centres not stated)	> 100	> 100	> 100	> 100	> 100	> 100	> 100	> 100		> 100	> 100	> 100	> 100	> 100	> 100	> 100	> 100	> 100	> 100
Cc1nn(C)cc1P(=S)(c1ccccc1)c1ccccc1	> 100	> 100	> 100	> 100	> 100	> 100	> 100	> 100	> 100	> 100	> 100	> 100	> 100	> 100		> 100	> 100	> 100	> 100
